SMILES strings stand for the structures.

The term melting point denotes the temperature, or range, at which the solid turns liquid.

With `NCCCCCCCCCCC(=O)O`, the melting point turned out to be 191 °C.
The compound `Clc1ccc2scc(CBr)c2c1` came in with a melting point of 129 to 130 °C.
For `CC(=O)CCc1cc2c(cc1[N+](=O)[O-])CCC(C)N2C(=O)c1ccc([N+](=O)[O-])cc1` (centres undefined), the melting point is 173 °C.
With `BrCC(Br)C1CCC(Br)C(Br)C1` (centres undefined), the melting point turned out to be 70 °C.
`Clc1cc(Cl)c(I)c(Cl)c1` displayed a melting point of 56 to 58 °C.
Compound `CCOC(=O)C(ON=C(c1cc2ccccc2o1)c1cc2ccccc2o1)C(=O)OCC` came in with a melting point of 137 to 138 °C.
For `Cc1cc(Br)ccc1N`, the melting point is 59.5 °C.
For `O=C(O)Cc1ccc(Cl)nc1` the value was 174 °C; for `COc1cc(CC(=O)O)c([N+](=O)[O-])cc1OC`, 111 to 112 °C; for `N#Cc1cnc2[nH]ccc2c1`, 228 °C.
The figure for `Cc1ccc(-n2ncc(Cl)c(Cl)c2=O)cc1` is 144 to 146 °C.
As for `CCOC(=O)CC(=O)c1ccncc1`, the melting point was in the range of 53 to 59 °C.
The compound `CC(C)(C)OC(=O)N1C2CCC1CC(=O)C2` had a melting point of 58 to 59 °C.
Turning to `CCOC(=O)C1C(c2ccc(OC)cc2)C(C(=O)OCC)C(O)(C(F)(F)F)NC1(O)C(F)(F)F` (centres undefined), the melting point is 109 °C.
`CC(C)(C)OC(=O)ON=C(C#N)c1ccccc1` gave a melting point of 86 to 89 °C.
With `CN(C(=O)CCl)c1c2c(nn1C)CCCC2`, the melting point is 84 to 86 °C.
For `Cc1ccc(NC(=O)C=CC(=O)O)cc1`, the melting point is 205 °C.
Turning to `FC(F)(F)C(F)(F)C(F)(F)C(F)(F)C(F)(F)C(F)(F)F`, the melting point was -4 °C.
`Cc1cc(N)ccc1N` gave a melting point of 64 °C.
Turning to `O=C(O)CC(CC(=O)O)c1ccc(Cl)cc1`, the melting point turned out to be 166 °C.
The compound `N#CCN1C(=O)c2ccccc2S1(=O)=O` registered a melting point of 142 to 143 °C.
`CC(C)n1c(C(F)(F)F)nc2cc(C(=O)Cl)ccc21` came in with a melting point of 102 °C.
In turn, `CCCCCCCCCCOc1ccccc1OCCCCCCCCCC` displayed a melting point of 39 to 42 °C.
For `CCCCCCCCCCCI` the value was 2 °C; for `Ic1c(-c2ccccc2)cccc1-c1ccccc1`, 115 °C; for `CC=C(C(=CC)c1ccc(O)cc1)c1ccc(O)cc1`, 228 °C.
`CC(C)CCCC(C)C1CCC2(C)C1(C)CCC13OC21CCC1C(C)C(O)CCC13C` (centres undefined) registered a melting point of 161 to 163 °C.
The figure for `O=C(O)C1CCCC1` is 4 °C; for `O=C1CCC(c2ccc(NC(=O)Nc3ccccc3)cc2)=NN1` it is 335 to 338 °C.
`COC(=O)C1=NC(C)(C)[N+]([O-])=C1` yielded a melting point of 80 to 83 °C.
The figure for `CC(=O)Oc1cn(C(C)=O)c2ccc(Br)c(Cl)c12` is 166 °C.
For `N=C(N)NCC(=O)O` the value was 300 °C; for `O=C(Cn1cncn1)c1ccc(F)cc1F`, 105 °C.
`O=Cc1cc(Br)ccc1Br` came in with a melting point of 95 °C.
As for `CCc1occc(=O)c1O`, the melting point stood at 162 °C.
Turning to `Cc1ccc(-c2ccc3c(c2)C=CC(=C2C(=O)c4ccccc4C2=O)N3)cc1`, the melting point is 241 to 242 °C.
`Cc1ccc(C2(C(=O)O)CC2)cc1` gave a melting point of 109 to 114 °C.
For the compound `OCC(c1ccccc1)c1ccccc1`, the melting point came to 64.5 °C.
`COC(=O)c1cc(C)n(CN(Cn2nc(C(=O)OC)cc2C)c2ccccc2)n1`: the melting point fell in the range of 124 to 126 °C.
For the compound `BrC(Br)C(Br)(Br)Br`, the melting point worked out at 56.5 °C.
In the case of `c1ccc2c(c1)-c1ccc3ccc4cccc5cc-2c1c3c45`, the melting point was 164 °C.
As to `C=C1C(=CC=C2CCCC3(C)C2CCC3C(C)CCCC(C)C)CC(O)CC1O` (centres undefined), the melting point is 136 °C.
As for `CCCCI`, the melting point is -103 °C.
`O=C(O)c1ccc(-c2ccc([N+](=O)[O-])cc2)o1`: the melting point is 255 to 257 °C.
`O=P(c1ccccc1)(c1ccccc1)C1CCCCC1` returned a melting point of 166 °C.
Turning to `C=C1CCC2OC2(C)CCC2C1CC2(C)C` (single isomer, unassigned; (-)), the melting point stood at 62.5 °C.
`Cc1nc2scc(-c3ccccc3)c2c(=O)n1NC(=O)c1ccc(Cl)cc1Cl` had a melting point of 290 to 292 °C.
Regarding `N#Cc1ccc(N2CCC(C(=O)NN)CC2)cc1`, the melting point was in the range of 198 to 202 °C.
For `O=C(CBr)c1ccc(-c2ccccc2)cc1` the value was 125 °C; for `O=C1OC(O)c2c(Cl)c(Cl)c(Cl)c(Cl)c21` (centres undefined), 240 to 248 °C; for `CCCOc1ccc2[nH]c(NC(=O)OC)nc2c1`, 230 °C.
In turn, `CC(C)[C@H](N)C(O)(c1ccccc1)c1ccccc1` showed a melting point of 92 °C.
Compound `COc1ccc(C(=O)OCCOc2ccc(C=CC(=O)c3ccccc3)cc2)cc1` registered a melting point of 113 °C.
The figure for `Cn1c(=O)oc(=O)c2ccccc21` is 165 °C.
The figure for `FC(F)(F)c1nnc2sc(=S)[nH]n12` is 160 °C; for `COc1cccc(C=CC(=O)O)c1` it is 116 to 119 °C; for `Oc1c(Cl)c(Cl)cc(Cl)c1Cl` it is 115 °C.
The figure for `Cc1cccc(OP(=O)(Oc2cccc(C)c2)Oc2cccc(C)c2)c1` is 25.5 °C; for `NN=C(/C(=N/N)c1ccc2ccccc2c1)c1ccccc1` it is 163 °C; for `COc1ccc(C(=O)Cc2c(CCN(C)C)cc3c(c2OC)OCO3)c(C(=O)O)c1OC` it is 138 °C.
For `O=C(O)c1c(C(F)(F)F)ccnc1Cl`, the melting point worked out at 159 °C.
In turn, `O=C(C=CC(=O)OCC(F)(F)C(F)(F)C(F)(F)C(F)(F)C(F)(F)C(F)(F)C(F)(F)F)OCC(F)(F)C(F)(F)C(F)(F)C(F)(F)C(F)(F)C(F)(F)C(F)(F)F` came in with a melting point of 82 to 84 °C.
With `Cc1ccccc1N1C(=O)C2ON=C(C(=O)c3ccco3)C2C1=O` (centres undefined), the melting point lay in the range of 203 to 204 °C.
On to `CC(=O)OCCOc1cc(OC(C)=O)c2c(=O)c(OC(C)=O)c(-c3ccc(OCCOC(C)=O)c(OCCOC(C)=O)c3)oc2c1`, for which the melting point is 96 to 97 °C.
Turning to `CCCCCCCCCCCCCCCC(=O)OCC=C(C)C=CC=C(C)C=CC1=C(C)CCCC1(C)C`, the melting point came to 28.5 °C.
The compound `c1ccc2c(c1)CNC2` had a melting point of 17 °C.
Take `O=C1CC(c2ccccc2)Cc2ccncc21` (centres undefined): the melting point was 83 °C.
The compound `N#CC(=Cc1ccccc1)C(=O)O` returned a melting point of 175 °C.
Turning to `Fc1cc(Br)c(Cl)c(Br)c1`, the melting point came out at 86 °C.
`N#Cc1c(NC(=O)c2ccccc2)sc2c1CCCC2` yielded a melting point of 110 °C.
The figure for `Cc1ccc(C=C2C(=O)NN=C2c2c(O)c3ccccc3n(C)c2=O)cc1` is 280 °C.
`COc1cccc(CO)c1O` yielded a melting point of 59 to 63 °C.
Take `NC(=O)NN=CC(=O)c1ccc(C(=O)C=NNC(N)=O)c([N+](=O)[O-])c1`: the melting point worked out at 241 °C.
Take `COc1cccc2c(=O)c3c(n(C)c12)OC(C(C)C)C3` (centres undefined): the melting point came out at 119 °C.
`COc1ccc(C=Nc2ccc(C3=NNC(=O)CC3)cc2)cc1`: the melting point was in the range of 213 to 215 °C.
In turn, `CCCCCCC(O)CO` (centres undefined) had a melting point of 36 to 38 °C.
On to `CC(=O)N1CCSC1C(=O)NN` (centres undefined), for which the melting point was in the range of 193 to 196 °C.
The compound `CCN(CC)CC(=O)Nc1sc2c(c1C#N)CCCC2` returned a melting point of 170 to 171 °C.
In the case of `CCCCCCCCCCCCCCC=O`, the melting point amounted to 24.5 °C.
Compound `CC1=NNC(=O)C1=NNc1ccc(Cl)cc1` showed a melting point of 215 °C.
In the case of `CCOC(=O)c1c(NC(=O)Nc2cccc(Cl)c2)sc2c1CCCC2`, the melting point fell in the range of 164 to 165 °C.
The figure for `CC(C)(C)N(NC(=O)c1ccccc1)C(=O)c1cc(F)c(F)c(F)c1F` is 158 °C; for `OC1(C2(O)CCCCC2)CCCCC1` it is 127 °C; for `C#CC1(O)CCC2C3CCC4=CC(=O)CCC4=C3C=CC21C` (centres undefined) it is 169 °C.
In turn, `Nc1nc(-c2ccc(O)cc2)cs1` registered a melting point of 206 to 208 °C.
As to `CC[N+](CC)(CC)S(=O)(=O)[N-]C(=O)OC`, the melting point was found to be 77 °C.
For `COC1C(O)C(O)C(O)C(O)C1O` (single isomer, unassigned; (-)) the value was 190 to 198 °C; for `CC1=NN(c2ccccc2)C(=O)C1Cc1ccccc1O` (centres undefined), 140 °C.
`c1cc2[nH]cnc2cn1` registered a melting point of 172 °C.
The figure for `N#CC#CC#N` is 20.5 °C; for `COC(=O)C1(C(=O)OC)C=C(OC)c2ccccc21` it is 114 to 115 °C.
In turn, `O=C(O)C=Cc1cccc([N+](=O)[O-])c1` had a melting point of 202 to 204 °C.
On to `Cc1nc(-c2ccc(Br)cc2)no1`, for which the melting point lay in the range of 98 to 99 °C.
As to `CC1(C)c2cccc(P(C(C)(C)C)C(C)(C)C)c2Oc2c(P(C(C)(C)C)C(C)(C)C)cccc21`, the melting point was 155 °C.
The compound `Cc1cc(Cl)nn1C` registered a melting point of 47.5 °C.
In turn, `CC(C)(C)c1cc(S)cc(C(C)(C)C)c1O` came in with a melting point of 76 °C.
Turning to `COC(=O)c1sc(C(F)(F)F)c(-c2ccccc2)c1S(=O)(=O)Cl`, the melting point was in the range of 74 to 75 °C.
The compound `C=C1C(C)CCC2(C)C3=C(C(=O)C4(CC4C)C(OC(C)=O)C3=O)C(OC(C)=O)C(O)C12` (centres undefined) displayed a melting point of 233 °C.
`N#CCC(=O)N1CCOCC1` gave a melting point of 87 to 89 °C.
In the case of `Cn1c(=O)c(C2=NNC(=O)C2=CNc2cccc3ccccc23)c(O)c2ccccc21`, the melting point stood at 292 °C.
Regarding `CC(=O)c1cccc2ccccc12`, the melting point was 34 °C.
Compound `ClCOc1ccc(Cl)cc1` had a melting point of 29 to 30 °C.
With `Nc1cc2c(cc1Cl)C(=O)c1ccccc1C2=O`, the melting point was 282 °C.
For `O=C(c1ccc(OCc2ccccc2)cc1)c1cn(C(=O)c2ccc(OCc3ccccc3)cc2)c2ccccc12`, the melting point is 181 °C.

Values taken from a melting point compilation (Tetko et al.).
